Source: ChEMBL document CHEMBL5465560, “Selectivity Literature for EUbOPEN Chemogenomic Library” (2024)

What was measured:
[1] = target: Vascular endothelial growth factor receptor 1 (Homo sapiens) (UniProt P17948); experiment: Selectivity interaction (KinomeScan (DiscoverX)) EUB0001049a FLT1; conditions: at 1 µM
[2] = target: T1, Serine/threonine-protein kinase Nek3 (Homo sapiens) (UniProt P51956); experiment: Selectivity interaction (KinomeScan (DiscoverX)) EUB0001049a NEK3; conditions: at 1 µM
T1 sequence (whole entry): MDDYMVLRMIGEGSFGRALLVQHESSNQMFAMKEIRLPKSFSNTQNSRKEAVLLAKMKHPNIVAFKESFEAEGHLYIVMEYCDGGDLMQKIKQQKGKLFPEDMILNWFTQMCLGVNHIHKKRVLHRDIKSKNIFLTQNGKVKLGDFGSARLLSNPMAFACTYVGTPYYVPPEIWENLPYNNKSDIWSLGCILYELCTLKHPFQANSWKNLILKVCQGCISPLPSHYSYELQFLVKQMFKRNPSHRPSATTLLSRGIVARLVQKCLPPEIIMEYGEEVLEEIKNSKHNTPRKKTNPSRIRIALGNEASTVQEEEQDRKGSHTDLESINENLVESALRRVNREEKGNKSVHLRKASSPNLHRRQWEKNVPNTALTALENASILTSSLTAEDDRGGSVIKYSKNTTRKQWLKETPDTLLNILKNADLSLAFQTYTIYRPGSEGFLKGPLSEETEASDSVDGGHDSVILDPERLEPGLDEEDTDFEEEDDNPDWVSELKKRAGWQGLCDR

Mu-type opioid receptor = Mu-type opioid receptor (Homo sapiens, UniProt P35372); experiment: Selectivity interaction (Panel of kinases, GPCRs, ion channels and transporters (enzymatic assay)) EUB0000266bCl OPRM1
[3] = target: T2, Dual specificity tyrosine-phosphorylation-regulated kinase 2 (Homo sapiens) (UniProt Q92630); experiment: Selectivity interaction (Ambit KINOMEscan and KiNATiv profiling in Jurkat cells) EUB0000090b DYRK2; assay type: cell-based; conditions: at 1 µM
T2 sequence (whole entry): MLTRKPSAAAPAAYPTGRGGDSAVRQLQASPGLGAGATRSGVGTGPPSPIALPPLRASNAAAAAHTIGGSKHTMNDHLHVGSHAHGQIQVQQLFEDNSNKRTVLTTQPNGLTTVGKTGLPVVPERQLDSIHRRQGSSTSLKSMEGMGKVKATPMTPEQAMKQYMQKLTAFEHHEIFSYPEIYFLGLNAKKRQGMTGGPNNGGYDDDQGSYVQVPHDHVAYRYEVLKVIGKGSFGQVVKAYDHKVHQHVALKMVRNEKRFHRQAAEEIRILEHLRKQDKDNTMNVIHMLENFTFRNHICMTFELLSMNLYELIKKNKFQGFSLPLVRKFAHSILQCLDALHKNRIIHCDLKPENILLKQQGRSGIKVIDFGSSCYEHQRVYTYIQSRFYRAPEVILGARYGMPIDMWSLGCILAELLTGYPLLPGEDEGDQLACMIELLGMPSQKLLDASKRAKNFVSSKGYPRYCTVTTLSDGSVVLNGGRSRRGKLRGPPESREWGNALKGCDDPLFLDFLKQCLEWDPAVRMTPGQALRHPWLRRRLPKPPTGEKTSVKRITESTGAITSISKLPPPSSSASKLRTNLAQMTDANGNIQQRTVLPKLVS

Ephrin type-A receptor 4 = Ephrin type-A receptor 4 (Homo sapiens, UniProt P54764); experiment: Selectivity interaction (Ambit KINOMEscan and KiNATiv profiling in Jurkat cells) EUB0000090b EPHA4; assay type: cell-based; conditions: at 1 µM
[4] = target: Wee1-like protein kinase (Homo sapiens) (UniProt P30291); experiment: Selectivity interaction (LanthaScreen Eu Kinase Binding Assay) EUB0001632a WEE1; conditions: at 10 µM
[5] = target: Vascular endothelial growth factor receptor 1 (Homo sapiens) (UniProt P17948); experiment: Selectivity interaction (KinomeScan (DiscoverX)) EUB0000695a FLT1; conditions: at 100 nM
[6] = target: T3, Serine/threonine-protein kinase Sgk1 (Homo sapiens) (UniProt O00141); experiment: Selectivity interaction (KinomeScan (DiscoverX)) EUB0000229b SGK1; conditions: at 10 µM
T3 sequence (whole entry): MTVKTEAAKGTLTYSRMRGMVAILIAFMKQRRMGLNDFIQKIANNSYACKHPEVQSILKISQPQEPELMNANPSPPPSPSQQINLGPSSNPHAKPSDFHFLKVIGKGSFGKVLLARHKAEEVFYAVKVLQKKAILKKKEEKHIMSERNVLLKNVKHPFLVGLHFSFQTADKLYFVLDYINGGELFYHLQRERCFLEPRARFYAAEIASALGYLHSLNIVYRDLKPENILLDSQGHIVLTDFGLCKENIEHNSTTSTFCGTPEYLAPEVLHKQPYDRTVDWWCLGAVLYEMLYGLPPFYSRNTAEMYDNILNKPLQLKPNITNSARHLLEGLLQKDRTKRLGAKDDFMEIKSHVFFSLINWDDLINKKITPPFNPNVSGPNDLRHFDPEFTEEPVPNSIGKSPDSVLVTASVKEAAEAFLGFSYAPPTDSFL

[7] = target: Mitogen-activated protein kinase kinase kinase 11 (Homo sapiens) (UniProt Q16584); experiment: Selectivity interaction (KinomeScan (DiscoverX)) EUB0001079a MAP3K11; conditions: at 1 µM
[8] = target: T4, Serine/threonine-protein kinase DCLK2 (Homo sapiens) (UniProt Q8N568); experiment: Selectivity interaction (KinomeScan (DiscoverX)) EUB0000092b DCLK2; conditions: at 10 µM
T4 sequence (whole entry): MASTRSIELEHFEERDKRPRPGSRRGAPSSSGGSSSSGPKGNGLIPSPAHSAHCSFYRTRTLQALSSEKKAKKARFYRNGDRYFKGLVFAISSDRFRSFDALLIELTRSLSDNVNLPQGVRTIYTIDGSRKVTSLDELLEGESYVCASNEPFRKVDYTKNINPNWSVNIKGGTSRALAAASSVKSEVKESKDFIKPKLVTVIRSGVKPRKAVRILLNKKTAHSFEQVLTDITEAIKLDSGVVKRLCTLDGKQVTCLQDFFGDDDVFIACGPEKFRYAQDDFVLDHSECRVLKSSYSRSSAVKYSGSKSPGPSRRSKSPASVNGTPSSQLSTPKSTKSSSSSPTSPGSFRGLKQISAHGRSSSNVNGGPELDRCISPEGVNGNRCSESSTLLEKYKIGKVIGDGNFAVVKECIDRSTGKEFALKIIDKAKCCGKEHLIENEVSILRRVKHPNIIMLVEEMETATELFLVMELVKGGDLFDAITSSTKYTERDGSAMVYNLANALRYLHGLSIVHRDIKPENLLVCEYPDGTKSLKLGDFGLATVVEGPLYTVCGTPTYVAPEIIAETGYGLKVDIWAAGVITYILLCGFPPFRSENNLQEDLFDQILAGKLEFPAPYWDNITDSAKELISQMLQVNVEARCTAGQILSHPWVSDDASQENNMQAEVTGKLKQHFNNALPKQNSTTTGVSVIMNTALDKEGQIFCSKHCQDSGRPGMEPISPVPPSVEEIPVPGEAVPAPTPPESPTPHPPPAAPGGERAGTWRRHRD

[9] = target: Tyrosine-protein kinase ABL2 (Homo sapiens, UniProt P42684); experiment: Selectivity interaction (ActivX KiNativ screen (ex vivo kinase selectivity in human PBMCs)) EUB0001619a ABL2; assay type: cell-based; conditions: PBMC, at 1 µM
Sequence of Tyrosine-protein kinase ABL2 (P42684 whole entry): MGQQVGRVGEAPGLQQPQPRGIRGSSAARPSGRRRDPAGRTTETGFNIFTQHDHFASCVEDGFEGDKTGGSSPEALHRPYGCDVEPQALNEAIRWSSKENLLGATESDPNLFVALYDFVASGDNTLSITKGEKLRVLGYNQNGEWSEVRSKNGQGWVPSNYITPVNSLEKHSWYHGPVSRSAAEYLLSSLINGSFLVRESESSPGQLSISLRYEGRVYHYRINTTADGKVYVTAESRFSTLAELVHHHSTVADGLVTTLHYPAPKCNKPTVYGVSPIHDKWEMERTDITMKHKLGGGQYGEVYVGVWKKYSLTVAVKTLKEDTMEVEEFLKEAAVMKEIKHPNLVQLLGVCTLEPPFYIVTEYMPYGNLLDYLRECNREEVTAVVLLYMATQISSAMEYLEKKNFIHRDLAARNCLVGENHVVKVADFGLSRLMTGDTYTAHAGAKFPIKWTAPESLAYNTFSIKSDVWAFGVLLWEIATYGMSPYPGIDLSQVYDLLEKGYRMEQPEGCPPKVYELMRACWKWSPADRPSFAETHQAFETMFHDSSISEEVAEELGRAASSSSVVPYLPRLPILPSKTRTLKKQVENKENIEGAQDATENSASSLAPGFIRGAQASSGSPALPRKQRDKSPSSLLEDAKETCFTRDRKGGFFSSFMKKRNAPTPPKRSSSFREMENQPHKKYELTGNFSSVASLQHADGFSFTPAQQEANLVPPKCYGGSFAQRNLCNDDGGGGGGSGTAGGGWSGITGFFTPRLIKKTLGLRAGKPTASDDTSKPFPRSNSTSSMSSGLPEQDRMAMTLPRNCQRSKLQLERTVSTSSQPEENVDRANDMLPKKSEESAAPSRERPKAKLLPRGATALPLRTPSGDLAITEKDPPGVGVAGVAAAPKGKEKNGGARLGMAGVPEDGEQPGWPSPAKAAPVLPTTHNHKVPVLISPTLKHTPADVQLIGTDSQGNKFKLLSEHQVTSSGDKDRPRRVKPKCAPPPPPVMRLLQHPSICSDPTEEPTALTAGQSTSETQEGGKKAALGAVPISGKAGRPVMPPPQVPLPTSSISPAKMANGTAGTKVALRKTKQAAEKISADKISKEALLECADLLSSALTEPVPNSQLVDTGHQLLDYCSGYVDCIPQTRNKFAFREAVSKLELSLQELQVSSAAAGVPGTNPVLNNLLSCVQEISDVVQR

Sequence of Vascular endothelial growth factor receptor 1 (Homo sapiens) (P17948 whole entry): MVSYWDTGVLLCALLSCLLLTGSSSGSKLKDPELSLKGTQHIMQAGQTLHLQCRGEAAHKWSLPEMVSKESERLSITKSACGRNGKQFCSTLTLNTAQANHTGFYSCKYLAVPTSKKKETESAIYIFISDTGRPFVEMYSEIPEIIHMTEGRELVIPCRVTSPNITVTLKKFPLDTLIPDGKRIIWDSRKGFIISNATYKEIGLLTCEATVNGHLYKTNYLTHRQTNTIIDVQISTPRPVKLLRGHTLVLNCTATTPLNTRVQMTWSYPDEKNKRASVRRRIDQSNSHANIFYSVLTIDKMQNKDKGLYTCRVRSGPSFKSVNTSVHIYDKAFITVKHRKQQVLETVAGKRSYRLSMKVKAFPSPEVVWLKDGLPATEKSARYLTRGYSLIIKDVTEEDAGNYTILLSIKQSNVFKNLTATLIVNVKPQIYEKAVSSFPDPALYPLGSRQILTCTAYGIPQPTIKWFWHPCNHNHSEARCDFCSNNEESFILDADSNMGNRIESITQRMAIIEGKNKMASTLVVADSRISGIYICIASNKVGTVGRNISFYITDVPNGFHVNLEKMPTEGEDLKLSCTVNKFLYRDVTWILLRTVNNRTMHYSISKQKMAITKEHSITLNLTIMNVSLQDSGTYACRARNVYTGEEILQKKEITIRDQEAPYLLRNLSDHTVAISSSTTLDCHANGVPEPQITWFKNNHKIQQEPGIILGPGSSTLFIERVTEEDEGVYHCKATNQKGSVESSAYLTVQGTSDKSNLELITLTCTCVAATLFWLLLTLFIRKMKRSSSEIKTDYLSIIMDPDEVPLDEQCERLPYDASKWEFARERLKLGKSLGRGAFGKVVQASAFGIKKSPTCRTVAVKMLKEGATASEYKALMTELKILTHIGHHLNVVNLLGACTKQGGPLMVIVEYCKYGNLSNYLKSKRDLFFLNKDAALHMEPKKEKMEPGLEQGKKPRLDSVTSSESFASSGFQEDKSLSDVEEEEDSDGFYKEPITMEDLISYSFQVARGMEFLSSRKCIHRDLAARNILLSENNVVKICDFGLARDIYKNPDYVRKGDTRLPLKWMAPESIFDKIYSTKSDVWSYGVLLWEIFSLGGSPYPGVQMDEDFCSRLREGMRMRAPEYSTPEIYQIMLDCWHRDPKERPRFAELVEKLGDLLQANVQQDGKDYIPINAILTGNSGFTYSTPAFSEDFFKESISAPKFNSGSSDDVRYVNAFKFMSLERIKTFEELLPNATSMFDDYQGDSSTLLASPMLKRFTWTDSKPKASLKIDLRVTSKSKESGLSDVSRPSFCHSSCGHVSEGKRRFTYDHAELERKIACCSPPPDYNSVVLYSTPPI
Sequence of Ephrin type-A receptor 4 (P54764 whole entry): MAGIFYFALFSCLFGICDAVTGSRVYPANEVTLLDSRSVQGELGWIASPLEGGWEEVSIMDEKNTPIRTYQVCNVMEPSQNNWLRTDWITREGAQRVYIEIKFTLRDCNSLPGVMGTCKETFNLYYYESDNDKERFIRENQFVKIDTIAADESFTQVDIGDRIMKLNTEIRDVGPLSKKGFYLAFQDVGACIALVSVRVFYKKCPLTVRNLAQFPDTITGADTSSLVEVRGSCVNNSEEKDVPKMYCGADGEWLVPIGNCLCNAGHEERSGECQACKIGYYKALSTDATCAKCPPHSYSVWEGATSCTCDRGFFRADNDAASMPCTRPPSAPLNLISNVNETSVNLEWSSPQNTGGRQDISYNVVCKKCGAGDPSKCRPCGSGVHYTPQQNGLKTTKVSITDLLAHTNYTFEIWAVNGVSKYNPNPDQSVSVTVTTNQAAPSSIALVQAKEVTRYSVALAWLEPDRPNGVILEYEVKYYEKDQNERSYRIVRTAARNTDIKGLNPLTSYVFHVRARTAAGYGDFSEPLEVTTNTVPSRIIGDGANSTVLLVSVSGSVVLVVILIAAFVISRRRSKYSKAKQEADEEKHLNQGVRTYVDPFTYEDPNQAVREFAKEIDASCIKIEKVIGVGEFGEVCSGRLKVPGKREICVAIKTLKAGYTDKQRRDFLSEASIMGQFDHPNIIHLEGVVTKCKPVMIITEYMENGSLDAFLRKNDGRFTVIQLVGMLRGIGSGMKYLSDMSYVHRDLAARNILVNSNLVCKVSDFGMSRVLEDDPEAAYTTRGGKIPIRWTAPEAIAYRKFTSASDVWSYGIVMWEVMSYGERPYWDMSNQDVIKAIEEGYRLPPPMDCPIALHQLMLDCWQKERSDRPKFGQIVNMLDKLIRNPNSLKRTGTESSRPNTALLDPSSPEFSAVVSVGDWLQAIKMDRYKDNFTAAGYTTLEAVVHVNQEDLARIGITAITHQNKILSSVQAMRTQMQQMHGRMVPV
Sequence of Mu-type opioid receptor (P35372 whole entry): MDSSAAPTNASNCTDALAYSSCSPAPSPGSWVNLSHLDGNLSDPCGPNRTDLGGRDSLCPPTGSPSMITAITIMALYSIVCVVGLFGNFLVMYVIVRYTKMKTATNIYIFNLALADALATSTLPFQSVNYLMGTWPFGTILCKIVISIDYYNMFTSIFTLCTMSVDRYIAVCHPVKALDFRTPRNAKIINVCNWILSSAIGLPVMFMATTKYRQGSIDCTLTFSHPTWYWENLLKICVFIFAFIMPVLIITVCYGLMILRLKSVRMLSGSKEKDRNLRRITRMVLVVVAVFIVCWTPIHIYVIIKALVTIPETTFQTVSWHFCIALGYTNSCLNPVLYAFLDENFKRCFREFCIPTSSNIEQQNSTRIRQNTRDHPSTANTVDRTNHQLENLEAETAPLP
Sequence of Mitogen-activated protein kinase kinase kinase 11 (Homo sapiens) (Q16584 whole entry, looked up): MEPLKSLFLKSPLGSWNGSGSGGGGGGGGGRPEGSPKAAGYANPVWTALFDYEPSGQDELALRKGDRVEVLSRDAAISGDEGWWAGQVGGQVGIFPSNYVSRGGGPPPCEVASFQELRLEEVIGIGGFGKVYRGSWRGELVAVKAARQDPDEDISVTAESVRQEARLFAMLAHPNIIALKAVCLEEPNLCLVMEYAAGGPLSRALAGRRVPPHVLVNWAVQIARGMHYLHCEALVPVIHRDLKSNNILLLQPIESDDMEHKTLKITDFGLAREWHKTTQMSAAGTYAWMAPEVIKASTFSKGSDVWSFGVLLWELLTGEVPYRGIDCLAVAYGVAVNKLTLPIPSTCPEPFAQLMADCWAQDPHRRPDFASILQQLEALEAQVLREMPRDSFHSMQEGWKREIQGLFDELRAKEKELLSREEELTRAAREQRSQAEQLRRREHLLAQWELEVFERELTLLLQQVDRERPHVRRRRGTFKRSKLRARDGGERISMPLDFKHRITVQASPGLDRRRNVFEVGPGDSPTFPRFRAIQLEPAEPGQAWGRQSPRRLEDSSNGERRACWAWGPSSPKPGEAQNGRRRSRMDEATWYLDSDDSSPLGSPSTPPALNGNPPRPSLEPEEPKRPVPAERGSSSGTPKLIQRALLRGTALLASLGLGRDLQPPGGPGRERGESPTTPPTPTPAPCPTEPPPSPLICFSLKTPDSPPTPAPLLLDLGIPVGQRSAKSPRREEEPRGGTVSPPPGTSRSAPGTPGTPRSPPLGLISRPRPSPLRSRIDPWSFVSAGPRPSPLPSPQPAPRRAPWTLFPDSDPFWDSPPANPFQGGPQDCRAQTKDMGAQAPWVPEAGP

SMILES: COc1cc(Nc2nc(C)cc(-c3cnn4nc(OC)ccc34)n2)cc(C(F)(F)F)c1
- % of control [1]: 82%
- % of control [2]: 92%

SMILES: CCn1c(-c2nc3cc(C(=O)N4CCCC(N)C4)ccc3n2C)cc2ccccc21 (stereo unspecified)
- pXC50 (Mu-type opioid receptor): < 4 M

SMILES: CN(C)C/C=C/C(=O)Nc1ccc(C(=O)N2CCCC(Nc3ncc(Cl)c(-c4c[nH]c5ccccc45)n3)C2)cc1 (stereo unspecified)
- % of control [3]: 7.4%
- % of control (Ephrin type-A receptor 4): 98%

SMILES: Cn1cc(-n2cnc3c(NCc4nc5cc(Cl)c(Cl)cc5[nH]4)nc(N4CCOCC4)nc32)cn1
- % of inhibition [4]: -20.9%

SMILES: Cc1cc(F)c(C(=O)Nc2cccc(-c3nncn3C(C)C)n2)cc1-n1cnc(C2CC2)c1
- % of control [5]: 100%

SMILES: COc1cc(N(C)c2ccnc3ccc(C(F)(F)F)cc23)cc(OC)c1OC
- % binding [6]: 97%

SMILES: Nc1cnc(N2CCc3cc(S(=O)(=O)Nc4c(F)cc(Cl)cc4F)cc(N4CCCC4=O)c32)nc1 [TP-020n]
- % of control [7]: 100%

SMILES: CCC(=O)N1CCN(c2ccc(-n3c(=O)ccc4cnc5ccc(-c6cnc7ccccc7c6)cc5c43)cc2C(F)(F)F)CC1
- % of control [8]: 100%

SMILES: N#Cc1cccc(-c2c[nH]c3ncnc(N4CCOCC4)c23)c1
- % of inhibition [9]: -1%
